Results: publication PMC5059489, “Mechanistic evaluation and transcriptional signature of a glutathione S-transferase omega 1 inhibitor” (Nature Communications, 2016)
Read-outs that look alike come from different tables or passages of the source.

Tests used:
[1] = molecular target: T1, GSTO1 (Homo sapiens, UniProt P78417); test: GSTO1 substrate assay (reduction of 4-NPG)
T1 sequence (P78417 1-241): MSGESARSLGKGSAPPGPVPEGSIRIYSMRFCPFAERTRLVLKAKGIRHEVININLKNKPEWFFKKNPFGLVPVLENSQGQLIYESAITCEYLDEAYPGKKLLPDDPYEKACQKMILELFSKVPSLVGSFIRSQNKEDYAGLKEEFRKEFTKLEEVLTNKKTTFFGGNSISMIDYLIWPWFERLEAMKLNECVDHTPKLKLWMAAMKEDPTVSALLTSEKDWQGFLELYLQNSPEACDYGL
Procedure: For activity screening, we adapted a GSTO1 substrate assay that relies on the quantification of the reduction of S-(4-nitrophenacyl)glutathione (4-NPG), a GSTO1-specific substrate[17], using recombinant human GSTO1 in a high-throughput screening format.
Enzyme activity was measured by monitoring the reduction of 4-NPG to 4-nitroacetophenone by GSTO1.

[2] = molecular target: T1, GSTO1; test: In-gel fluorescence competitive CMFDA binding assay, recombinant GSTO1; conditions: inhibition of CMFDA binding
Source text: (§1) Primary screening of GSTO inhibitors was based on competitive inhibition of CMFDA binding to endogenous GSTO. Briefly, HCT116^p53+/+ cells (4 × 10^4 per well) were coated in a 12-well plate. […] Cells were then washed with PBS and lysed using Cell Lytic M buffer (Sigma). […] Gels were immediately scanned on a Typhoon variable mode imager (Amersham Bioscience). Quantification of fluorescent band intensity was done using Image Quant 5.2 software.

[3] = molecular target: T2, endogenous GSTO1 (Homo sapiens, UniProt P78417); test: In-gel fluorescence competitive CMFDA binding assay, endogenous GSTO1 in HCT116; conditions: 10 µM; inhibition of CMFDA binding, HCT116
T2 sequence (P78417 1-241): T1 sequence (P78417 1-241)
Source text: as §1

[4] = read-out: GSTO substrate assay IC50, cluster screening tables

SMILES	GSTO substrate assay % Inhibition at 10 µM [1] [%]	GSTO binding assay (% Inhibition at 10 µM) Recombinant [2] [%]	GSTO binding assay (% Inhibition at 10 µM) Endogenous [3] [%]	IC50 ([1]; Substrate assay IC50, pilot screening) [nM]	IC50 [1, 4] [nM]
O=C(CCl)Nc1c(Br)cc([N+](=O)[O-])cc1Br [C1-3]	-4.9	0.9	3.8	–	–
O=C(CCl)Nc1ccccc1NC(=O)CCl [4c]	–	–	–	80800	–
CCOC(=O)c1c(-c2ccc(OC)c(OC)c2)csc1NC(=O)CCl [C2-12]	3.4	74.9	59.8	–	–
CCOC(=O)c1c(-c2ccccc2)csc1NC(=S)NC(=O)CCl [C3-26]	69.5	68.2	42.2	–	–
CCN(CC)c1ccc(S(=O)(=O)N2CCOCC2)cc1NC(=O)CCl [C1-32]	84.2	4.4	48.2	–	–
Cc1cc(C)c(NC(=O)CNC(=O)CCl)c(C)c1 [C3-24]	72.3	29.2	58.8	–	–
CCOc1ccc(OCCNC(=O)CCl)cc1 [C3-13]	62.6	25.1	–	–	–
COC(=O)c1ccc(C(=O)OC)c(NC(=O)CCl)c1 [C1-8]	100.9	61.2	56.5	–	5680
Cc1cc(C)c(-c2csc(NC(=O)CCl)n2)cc1C [C2-23]	26.4	76.0	–	–	–
O=C(CCl)Nc1ccccc1N1CCOCC1 [C1-21]	-8.4	69.9	58.2	–	–
O=C(CCl)NC(=O)c1cccc2ccccc12 [C3-18]	0.6	0.3	37.5	–	–
O=C(CCl)NCCN1C(=O)SC(=Cc2ccccc2F)C1=O [C3-32]	12.5	23.6	53.1	–	–
O=C(CCl)Nc1ccc(OC(F)F)cc1 [C1-6]	22.7	45.6	87.6	–	–
CCN(c1ccc(NC(=O)CCl)cc1)C(C)C [C1-15]	91.3	43.8	78.6	–	–
Cc1nn(Cc2ccccc2)c(C)c1CNC(=O)CCl [C3-30]	83.1	10.6	14.5	–	–
CCOc1ccc(NC(=O)CCl)cc1S(=O)(=O)N1CCCCC1 [C1-30]	75	75.9	80.8	–	79
O=C(CCl)NCc1cc([N+](=O)[O-])ccc1O [C3-3]	93.2	47.9	52.0	–	–

SMILES	GSTO substrate assay % Inhibition at 10 µM [1] [%]	GSTO binding assay (% Inhibition at 10 µM) Recombinant [2] [%]	GSTO binding assay (% Inhibition at 10 µM) Endogenous [3] [%]	IC50 ([1]; Substrate assay IC50, pilot screening) [nM]	IC50 [1, 4] [nM]
O=C(CCl)NCC1(N2CCCCC2)CCCCC1 [C3-31]	0.3	-13.7	23.0	–	–
COc1cc2c(cc1OC)CN(C(=O)CCl)CC2 [C5-17]	69.5	9.4	–	–	–
Cc1c(-c2ccccc2)sc(NC(=O)CCl)c1C(=O)N1CCOCC1 [C2-15]	87.8	63.2	74.2	–	360
Cc1cccc(NC(=S)NC(NC(=O)CCl)C(Cl)(Cl)Cl)c1 (stereo not drawn) [C3-27]	54.2	63.4	63.8	–	1650
CCN(C(=O)CCl)C1CCS(=O)(=O)C1 (stereo not drawn) [C4-4]	-0.8	5.9	17.0	–	–
Cc1ccc(CSCCNC(=O)CCl)cc1 [C3-15]	5.1	35.7	86.9	–	–
CCOC(=O)c1sc(-c2ccccc2)cc1NC(=O)CCl [C2-11]	-1.5	58.2	19.9	–	–
CC(C)c1ccc(C(NC(=O)CCl)C(C)C)cc1 (stereo not drawn) [C3-6]	56.2	53.7	51.3	–	7880
CN(CCOc1ccc(Cl)cc1)C(=O)CCl [C4-9]	20.7	66.7	43.5	–	–
O=C(CCl)N1CCN(S(=O)(=O)c2ccc(F)c(F)c2)CC1 [C5-14]	91.8	61.2	60.9	–	496
CCOc1ccc(NC(=O)NC(=O)CCl)cc1OCC [C3-19]	99.5	59.2	65.2	–	508
O=C(CCl)NCc1ccccc1CN1CCOCC1 [C3-1]	11.1	6.0	7.3	–	–
O=C(CCl)Nc1sc2c(c1C(=O)c1ccccc1)CCCC2 [C2-20]	91.1	68.3	39.6	–	–
COc1cc(C(=O)NNC(=O)CCl)cc(OC)c1OC [C3-22]	10.4	-2.4	-12.1	–	–
CCOc1ccc(/C=C/C2=Cc3c(sc(NC(=O)CCl)c3C#N)C(C)(C)C2)cc1 [C2-21]	99.5	78.6	52.3	–	350
CCC1(c2ccccc2)NC(=O)N(NC(=O)CCl)C1=O (stereo not drawn) [C2-29]	42.7	13.5	65.0	–	–
COCCN(C(=O)CCl)c1c(N)n(Cc2ccccc2)c(=O)[nH]c1=O [C4-18]	14.2	4.5	18.7	–	–
